PubChem BioAssay AID1918945 (Molecular Pharmacology Branch, DTP, NCI, 2023)

System: 883617-216-R-J1-PDC complex spheroid viability
Test: Anticancer human tumor 883617-216-R-J1-PDC patient-derived bladder carcinoma cell line growth inhibition
Settings: for IC50: curve of first compound; for viability, T/C: stronger effect = lower value
Method in brief: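 Drug combinations with the LSD1 inhibitor iadademstat tested on tumor cells co-cultured as spheroids with endothelial cells and mesenchymal stem cells. Concentrations descended in half-log increments from clinical Cmax or 10 microM.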

[1] = second compound 0.1 µM, first compound 0.000316 µM
[2] = second compound 0.1 µM, first compound 0.001 µM
[3] = second compound 0.1 µM, first compound 0.00316 µM
[4] = second compound 0.1 µM, first compound 0.01 µM
[5] = second compound 0.1 µM, first compound 0.0316 µM
[6] = second compound 0.1 µM, first compound 0.1 µM
[7] = second compound 0.316 µM, first compound 0.000316 µM
[8] = second compound 0.316 µM, first compound 0.001 µM
[9] = second compound 0.316 µM, first compound 0.00316 µM
[10] = second compound 0.316 µM, first compound 0.01 µM
[11] = second compound 0.316 µM, first compound 0.0316 µM
[12] = second compound 0.316 µM, first compound 0.1 µM
[13] = second compound 1 µM, first compound 0.000316 µM
[14] = second compound 1 µM, first compound 0.001 µM
[15] = second compound 1 µM, first compound 0.00316 µM
[16] = second compound 1 µM, first compound 0.01 µM
[17] = second compound 1 µM, first compound 0.0316 µM
[18] = second compound 1 µM, first compound 0.1 µM
[19] = second compound 3.16 µM, first compound 0.000316 µM
[20] = second compound 3.16 µM, first compound 0.001 µM
[21] = second compound 3.16 µM, first compound 0.00316 µM
[22] = second compound 3.16 µM, first compound 0.01 µM
[23] = second compound 3.16 µM, first compound 0.0316 µM
[24] = second compound 3.16 µM, first compound 0.1 µM
[25] = second compound 10 µM, first compound 0.000316 µM
[26] = second compound 10 µM, first compound 0.001 µM
[27] = second compound 10 µM, first compound 0.00316 µM
[28] = second compound 10 µM, first compound 0.01 µM
[29] = second compound 10 µM, first compound 0.0316 µM
[30] = second compound 10 µM, first compound 0.1 µM
[31] = second compound 0.1 µM, first compound 0.00949 µM
[32] = second compound 0.1 µM, first compound 0.03 µM
[33] = second compound 0.1 µM, first compound 0.0949 µM
[34] = second compound 0.1 µM, first compound 0.3 µM
[35] = second compound 0.1 µM, first compound 0.949 µM
[36] = second compound 0.1 µM, first compound 3 µM
[37] = second compound 0.316 µM, first compound 0.00949 µM
[38] = second compound 0.316 µM, first compound 0.03 µM
[39] = second compound 0.316 µM, first compound 0.0949 µM
[40] = second compound 0.316 µM, first compound 0.3 µM
[41] = second compound 0.316 µM, first compound 0.949 µM
[42] = second compound 0.316 µM, first compound 3 µM
[43] = second compound 1 µM, first compound 0.00949 µM
[44] = second compound 1 µM, first compound 0.03 µM
[45] = second compound 1 µM, first compound 0.0949 µM
[46] = second compound 1 µM, first compound 0.3 µM
[47] = second compound 1 µM, first compound 0.949 µM
[48] = second compound 1 µM, first compound 3 µM
[49] = second compound 3.16 µM, first compound 0.00949 µM
[50] = second compound 3.16 µM, first compound 0.03 µM
[51] = second compound 3.16 µM, first compound 0.0949 µM
[52] = second compound 3.16 µM, first compound 0.3 µM
[53] = second compound 3.16 µM, first compound 0.949 µM
[54] = second compound 3.16 µM, first compound 3 µM
[55] = second compound 10 µM, first compound 0.00949 µM
[56] = second compound 10 µM, first compound 0.03 µM
[57] = second compound 10 µM, first compound 0.0949 µM
[58] = second compound 10 µM, first compound 0.3 µM
[59] = second compound 10 µM, first compound 0.949 µM
[60] = second compound 10 µM, first compound 3 µM
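Also: exposure lasted seven days after three days of spheroid growth.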
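For viability, T/C in this document: 100% = DMSO vehicle control luminescence.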

## CC(C)CC(NC(=O)C(Cc1ccccc1)NC(=O)c1cnccn1)B(O)O (stereo not given) + NC1CCC(NC2CC2c2ccccc2)CC1
Second compound 0.1 µM
  IC50: 1.85 nM
Second compound 0.316 µM
  IC50: 1.79 nM
Second compound 1 µM
  IC50: 1.59 nM
Second compound 3.16 µM
  IC50: 1.62 nM
Second compound 10 µM
  IC50: 1.76 nM
[1]
  viability, T/C: 105%
[2]
  viability, T/C: 92.2%
[3]
  viability, T/C: 13.2%
[4]
  viability, T/C: 3.29%
[5]
  viability, T/C: 2.15%
[6]
  viability, T/C: 0.25%
[7]
  viability, T/C: 112%
[8]
  viability, T/C: 91.8%
[9]
  viability, T/C: 8.98%
[10]
  viability, T/C: 1.9%
[11]
  viability, T/C: 0.32%
[12]
  viability, T/C: 0.82%
[13]
  viability, T/C: 108%
[14]
  viability, T/C: 74.6%
[15]
  viability, T/C: 13.2%
[16]
  viability, T/C: 1.21%
[17]
  viability, T/C: 0.94%
[18]
  viability, T/C: 0.72%
[19]
  viability, T/C: 112%
[20]
  viability, T/C: 79.6%
[21]
  viability, T/C: 9.32%
[22]
  viability, T/C: 1.86%
[23]
  viability, T/C: 1.46%
[24]
  viability, T/C: 0.83%
[25]
  viability, T/C: 101%
[26]
  viability, T/C: 92.5%
[27]
  viability, T/C: 6.31%
[28]
  viability, T/C: 0.91%
[29]
  viability, T/C: 0.79%
[30]
  viability, T/C: 0.32%

## CC(C)CC(NC(=O)CNC(=O)c1cc(Cl)ccc1Cl)B1OC(=O)CC(CC(=O)O)(C(=O)O)O1 (stereo not given) + NC1CCC(NC2CC2c2ccccc2)CC1
Second compound 0.1 µM
  IC50: 6.36 nM
Second compound 0.316 µM
  IC50: 7.23 nM
Second compound 1 µM
  IC50: 6.46 nM
Second compound 3.16 µM
  IC50: 6.58 nM
Second compound 10 µM
  IC50: 6.38 nM
[1]
  viability, T/C: 101%
[2]
  viability, T/C: 112%
[3]
  viability, T/C: 74.7%
[4]
  viability, T/C: 32.5%
[5]
  viability, T/C: 11.9%
[6]
  viability, T/C: 1.23%
[7]
  viability, T/C: 108%
[8]
  viability, T/C: 110%
[9]
  viability, T/C: 86.4%
[10]
  viability, T/C: 34.8%
[11]
  viability, T/C: 11.1%
[12]
  viability, T/C: 0.94%
[13]
  viability, T/C: 101%
[14]
  viability, T/C: 107%
[15]
  viability, T/C: 83%
[16]
  viability, T/C: 29%
[17]
  viability, T/C: 10.3%
[18]
  viability, T/C: 0.98%
[19]
  viability, T/C: 101%
[20]
  viability, T/C: 108%
[21]
  viability, T/C: 75.8%
[22]
  viability, T/C: 34.5%
[23]
  viability, T/C: 9.37%
[24]
  viability, T/C: 1.62%
[25]
  viability, T/C: 111%
[26]
  viability, T/C: 106%
[27]
  viability, T/C: 79%
[28]
  viability, T/C: 31.8%
[29]
  viability, T/C: 4.25%
[30]
  viability, T/C: 0.93%

## Nc1ccccc1NC(=O)c1ccc(CNC(=O)OCc2cccnc2)cc1 + NC1CCC(NC2CC2c2ccccc2)CC1
Second compound 0.1 µM
  IC50: 206 nM
Second compound 0.316 µM
  IC50: 205 nM
Second compound 1 µM
  IC50: 233 nM
Second compound 3.16 µM
  IC50: 216 nM
Second compound 10 µM
  IC50: 235 nM
[31]
  viability, T/C: 115%
[32]
  viability, T/C: 89.3%
[33]
  viability, T/C: 73.5%
[34]
  viability, T/C: 39.5%
[35]
  viability, T/C: 15.8%
[36]
  viability, T/C: 0.37%
[37]
  viability, T/C: 112%
[38]
  viability, T/C: 96.2%
[39]
  viability, T/C: 74.1%
[40]
  viability, T/C: 36.5%
[41]
  viability, T/C: 16.6%
[42]
  viability, T/C: 0.73%
[43]
  viability, T/C: 104%
[44]
  viability, T/C: 90.2%
[45]
  viability, T/C: 76.5%
[46]
  viability, T/C: 41.4%
[47]
  viability, T/C: 17.5%
[48]
  viability, T/C: 1.37%
[49]
  viability, T/C: 102%
[50]
  viability, T/C: 103%
[51]
  viability, T/C: 66.6%
[52]
  viability, T/C: 40.4%
[53]
  viability, T/C: 21.5%
[54]
  viability, T/C: 1.18%
[55]
  viability, T/C: 106%
[56]
  viability, T/C: 88%
[57]
  viability, T/C: 66.5%
[58]
  viability, T/C: 45.9%
[59]
  viability, T/C: 23.6%
[60]
  viability, T/C: 0.93%

## O=C(C=Cc1cccc(S(=O)(=O)Nc2ccccc2)c1)NO + NC1CCC(NC2CC2c2ccccc2)CC1
Second compound 0.1 µM
  IC50: 142 nM
Second compound 0.316 µM
  IC50: 131 nM
Second compound 1 µM
  IC50: 139 nM
Second compound 3.16 µM
  IC50: 139 nM
Second compound 10 µM
  IC50: 124 nM
[31]
  viability, T/C: 102%
[32]
  viability, T/C: 92.8%
[33]
  viability, T/C: 55.3%
[34]
  viability, T/C: 31.2%
[35]
  viability, T/C: 20.7%
[36]
  viability, T/C: 2.88%
[37]
  viability, T/C: 108%
[38]
  viability, T/C: 98.6%
[39]
  viability, T/C: 50%
[40]
  viability, T/C: 31.7%
[41]
  viability, T/C: 20.9%
[42]
  viability, T/C: 2.02%
[43]
  viability, T/C: 95.7%
[44]
  viability, T/C: 84.3%
[45]
  viability, T/C: 57.4%
[46]
  viability, T/C: 30.8%
[47]
  viability, T/C: 18.9%
[48]
  viability, T/C: 2.72%
[49]
  viability, T/C: 101%
[50]
  viability, T/C: 84.2%
[51]
  viability, T/C: 55.7%
[52]
  viability, T/C: 34.2%
[53]
  viability, T/C: 17.8%
[54]
  viability, T/C: 2.63%
[55]
  viability, T/C: 99.5%
[56]
  viability, T/C: 76.4%
[57]
  viability, T/C: 55.3%
[58]
  viability, T/C: 32.6%
[59]
  viability, T/C: 19.6%
[60]
  viability, T/C: 1.64%

## O=C(c1cc(Cc2n[nH]c(=O)c3ccccc23)ccc1F)N1CCN(C(=O)C2CC2)CC1 + NC1CCC(NC2CC2c2ccccc2)CC1
Second compound 0.1 µM
  IC50: 2730 nM
Second compound 0.316 µM
  IC50: 8240 nM
Second compound 1 µM
  IC50: 3580 nM
Second compound 3.16 µM
  IC50: 3790 nM
Second compound 10 µM
  IC50: 8940 nM
[5]
  viability, T/C: 100%
[6]
  viability, T/C: 93%
Second compound 0.1 µM, first compound 0.316 µM
  viability, T/C: 93.3%
Second compound 0.1 µM, first compound 1 µM
  viability, T/C: 65.5%
Second compound 0.1 µM, first compound 3.16 µM
  viability, T/C: 49%
Second compound 0.1 µM, first compound 10 µM
  viability, T/C: 44.4%
[11]
  viability, T/C: 107%
[12]
  viability, T/C: 102%
Second compound 0.316 µM, first compound 0.316 µM
  viability, T/C: 99.7%
Second compound 0.316 µM, first compound 1 µM
  viability, T/C: 76.2%
Second compound 0.316 µM, first compound 3.16 µM
  viability, T/C: 60.1%
Second compound 0.316 µM, first compound 10 µM
  viability, T/C: 47.5%
[17]
  viability, T/C: 90.8%
[18]
  viability, T/C: 89.9%
Second compound 1 µM, first compound 0.316 µM
  viability, T/C: 90%
Second compound 1 µM, first compound 1 µM
  viability, T/C: 76.1%
Second compound 1 µM, first compound 3.16 µM
  viability, T/C: 50.8%
Second compound 1 µM, first compound 10 µM
  viability, T/C: 44.5%
[23]
  viability, T/C: 94.1%
[24]
  viability, T/C: 98.5%
Second compound 3.16 µM, first compound 0.316 µM
  viability, T/C: 88.6%
Second compound 3.16 µM, first compound 1 µM
  viability, T/C: 73.3%
Second compound 3.16 µM, first compound 3.16 µM
  viability, T/C: 51.3%
Second compound 3.16 µM, first compound 10 µM
  viability, T/C: 42.5%
[29]
  viability, T/C: 104%
[30]
  viability, T/C: 96.3%
Second compound 10 µM, first compound 0.316 µM
  viability, T/C: 89.7%
Second compound 10 µM, first compound 1 µM
  viability, T/C: 75.7%
Second compound 10 µM, first compound 3.16 µM
  viability, T/C: 58.1%
Second compound 10 µM, first compound 10 µM
  viability, T/C: 49.5%
